Results taken from patent US6472348B1, “Pyridone derivatives and herbicides” (Kumiai Chemical Industry Co., Ltd., priority 1996, dated 2002).

Tests used:
[1] = system: corn (Ze); experiment: Test Example 11: crop plant selectivity by upland field foliage treatment (corn), phytotoxicity; conditions: dose 1.6 g ai/10a
Experimental: (§1) (Test on Crop Plant Selectivity by Upland Field Foliage Treatment)
(§2) In a plastic pot (surface area: 600 cm^2) filled with sand, corn (Ze), pale smartweed (Po), slender amaranth (Am), common lambsquarters (Ch) and China jute (Ab) were sown and cultured in a green house for 2 weeks. […] The plants were then cultured in a green house, and the evaluation of the herbicidal effects and phytotoxicity was conducted on the 14th day after the treatment in accordance with the standards as identified in Table 47.

[2] = system: wheat (Tr); experiment: Test Example 9: crop plant selectivity by upland field foliage treatment (wheat), phytotoxicity; conditions: dose 1.6 g ai/10a, 14th day after treatment;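 also: grade of crop injury; 5 = at least 90%; 4 = 70 to 90%; 3 = 50 to 70%; 2 = 30 to 50%; 1 = 10 to 30%; 0 = under 10%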
Summary of the method: (§3)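 Wheat and weeds sown in sand-filled pots, grown 2 weeks in a greenhouse, then foliage-treated. Herbicidal effect and crop phytotoxicity were scored 14 days after treatment against a rating scale.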

[3] = system: slender amaranth (Am); experiment: Test Example 9: crop plant selectivity by upland field foliage treatment (wheat), herbicidal effects; type: in vivo; parameters: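 grade of growth control; 5 = at least 90%; 4 = 70 to 90%; 3 = 50 to 70%; 2 = 30 to 50%; 1 = 10 to 30%; 0 = under 10%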; conditions: dose 1.6 g ai/10a, 14th day after treatment
Summary of the method: as §3

[4] = system: pale smartweed (Po); experiment: as above; type: in vivo; parameters: scale not given here; conditions: dose 1.6 g ai/10a, 14th day after treatment
Summary of the method: as §3

[5] = system: common lambsquarters (Ch); experiment: as above; type: in vivo; parameters: scale not given here; conditions: dose 1.6 g ai/10a, 14th day after treatment
Summary of the method: as §3

[6] = system: China jute (Ab); experiment: as above; type: in vivo; parameters: scale not given here; conditions: dose 1.6 g ai/10a, 14th day after treatment
Summary of the method: as §3

[7] = system: slender amaranth (Am); experiment: Test Example 11: crop plant selectivity by upland field foliage treatment (corn), herbicidal effects; type: in vivo; parameters: scale not given here; conditions: dose 1.6 g ai/10a
Experimental: as §1, §2

[8] = system: pale smartweed (Po); experiment: as above; type: in vivo; parameters: scale not given here; conditions: dose 1.6 g ai/10a
Experimental: as §1, §2

[9] = system: common lambsquarters (Ch); experiment: as above; type: in vivo; parameters: scale not given here; conditions: dose 1.6 g ai/10a
Experimental: as §1, §2

[10] = system: China jute (Ab); experiment: as above; type: in vivo; parameters: scale not given here; conditions: dose 1.6 g ai/10a
Experimental: as §1, §2

[11] = system: Diaitaria ciliaris (Di); experiment: Test Example 3: herbicidal effects by upland field foliage treatment; type: in vivo; parameters: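 grade of growth control; 5 = at least 90%; 4 = 70 to 90%; 3 = 50 to 70%; 2 = 30 to 50%; 1 = 10 to 30%; 0 = under 10%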
Summary of the method: (§4)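 Scoring used a standard effect scale on the 14th day post-treatment, with plants held in a greenhouse throughout. Foliar application was made to weeds raised from seed in sand-filled pots for 2 weeks.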

[12] = system: barnyardgrass (Ec); experiment: as above; type: in vivo; parameters: scale not given here
Summary of the method: as §4

[13] = system: slender amaranth (Am); experiment: as above; type: in vivo; parameters: scale not given here
Summary of the method: as §4

[14] = system: pale smartweed (Po); experiment: as above; type: in vivo; parameters: scale not given here
Summary of the method: as §4

[15] = system: common lambsquarters (Ch); experiment: as above; type: in vivo; parameters: scale not given here
Summary of the method: as §4

[16] = system: rice flatsedge (Ci); experiment: as above; type: in vivo; parameters: scale not given here
Summary of the method: as §4

[17] = system: barnyardgrass (Ec); experiment: Test Example 2: herbicidal effects by upland field soil treatment; type: in vivo; conditions: 100 g of the active ingredient per 10 ares, 21st day after the application, index 0-5 of Table 47;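 also: grade of growth control; 5 = at least 90%; 4 = 70 to 90%; 3 = 50 to 70%; 2 = 30 to 50%; 1 = 10 to 30%; 0 = under 10%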
Source text: (§5) (Test on Herbicidal Effects by Upland Field Soil Treatment)

[18] = system: slender amaranth (Am); experiment: as above; type: in vivo; conditions: 100 g of the active ingredient per 10 ares, 21st day after the application, index 0-5 of Table 47
Source text: as §5

[19] = system: pale smartweed (Po); experiment: as above; type: in vivo; conditions: 100 g of the active ingredient per 10 ares, 21st day after the application, index 0-5 of Table 47
Source text: as §5

[20] = system: Digitaria ciliaris (Di); experiment: as above; type: in vivo; conditions: 100 g of the active ingredient per 10 ares, 21st day after the application, index 0-5 of Table 47;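 also: grade of growth control; 5 = at least 90%; 4 = 70 to 90%; 3 = 50 to 70%; 2 = 30 to 50%; 1 = 10 to 30%; 0 = under 10%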
Source text: as §5

[21] = system: common lambsquarters (Ch); experiment: as above; type: in vivo; conditions: 100 g of the active ingredient per 10 ares, 21st day after the application, index 0-5 of Table 47
Source text: as §5

[22] = system: rice flatsedge (Ci); experiment: as above; type: in vivo; conditions: 100 g of the active ingredient per 10 ares, 21st day after the application, index 0-5 of Table 47
Source text: as §5

[23] = system: barnyardgrass (Ec); experiment: Test Example 1: herbicidal effects by paddy field soil treatment; type: in vivo; conditions: 100 g of the active ingredient per 10 ares, 21st day after the application, index 0-5 of Table 47;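 also: grade of growth control; 5 = at least 90%; 4 = 70 to 90%; 3 = 50 to 70%; 2 = 30 to 50%; 1 = 10 to 30%; 0 = under 10%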
Summary of the method: (§6)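 Greenhouse pot test in flooded paddy soil, dosed at 100 g a.i. per 10 ares; effect scored on day 21.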

[24] = system: monochoria (Mo); experiment: as above; type: in vivo; conditions: 100 g of the active ingredient per 10 ares, 21st day after the application, index 0-5 of Table 47
Summary of the method: as §6

[25] = system: bulrush (Sc); experiment: as above; type: in vivo; conditions: 100 g of the active ingredient per 10 ares, 21st day after the application, index 0-5 of Table 47
Summary of the method: as §6

[26] = upland field foliage treatment, 14th day after treatment
[27] = upland field foliage treatment (corn test), 14th day after treatment
[28] = 100 g of the active ingredient per 10 ares, evaluated on the 14th day after treatment
[29] = corn, foliage treatment, evaluated on 14th day after treatment, index per Table 47
[30] = slender amaranth, foliage treatment, evaluated on 14th day after treatment, index per Table 47
[31] = pale smartweed, foliage treatment, evaluated on 14th day after treatment, index per Table 47
[32] = common lambsquarters, foliage treatment, evaluated on 14th day after treatment, index per Table 47
[33] = China jute, foliage treatment, evaluated on 14th day after treatment, index per Table 47
[34] = 100 g active ingredient per 10 ares, evaluated 14th day after treatment

SMILES | Phytotoxicity Ze [1, 26] | Phytotoxicity Tr [2] | Herbicidal effects Am [3] | Herbicidal effects Po [4] | Herbicidal effects Ch [5] | Herbicidal effects Ab [6] | Herbicidal effects Am [7, 27] | Herbicidal effects Po [8, 27] | Herbicidal effects Ch [9, 27] | Herbicidal effects Ab [10, 27] | Herbicidal effects Di [11, 28] | Herbicidal effects Ec [12, 28] | Herbicidal effects Am [13, 28] | Herbicidal effects Po [14, 28] | Herbicidal effects Ch [15, 28] | Herbicidal effects Ci [16, 28] | Herbicidal effects Ec [17] | Herbicidal effects Ec [23] | Herbicidal effects Mo [24] | Herbicidal effects Sc [25] | also measured
CCOC(=O)C(CC)Sc1cc(-c2ccc(C(F)(F)F)n(C)c2=O)c(Cl)cc1Cl (racemic) [1-125] | 2 | 2 | 5 | 5 | 5 | 5 | 5 | 5 | 5 | 5 | 5 | 5 | 5 | 5 | 5 | 5 | – | – | – | – | –
C#CC(C)Oc1cc(-c2ccc(C(F)(F)F)n(C)c2=O)c(Cl)cc1Cl (stereo not shown) [1-31] | 2 | 2 | 5 | 5 | 5 | 5 | 5 | 5 | 5 | 5 | – | – | – | – | – | – | – | – | – | – | –
COCOc1cc(-c2ccc(C(F)(F)F)n(C)c2=O)c(Cl)cc1Cl [1-38] | 2 | 2 | 5 | 5 | 5 | 5 | 5 | 5 | 5 | 5 | 5 | 5 | 5 | 5 | 5 | 5 | 5 | 5 | 5 | 5 | Herbicidal effects Am [18]: 5; Herbicidal effects Po [19]: 5; Herbicidal effects Di [20]: 5; Herbicidal effects Ch [21]: 5; Herbicidal effects Ci [22]: 5
C#CCNc1cc(-c2ccc(C(F)(F)F)n(C)c2=O)c(F)cc1Cl [1-62] | 2 | 2 | 5 | 5 | 5 | 5 | 5 | 5 | 5 | 5 | 5 | 5 | 5 | 5 | 5 | 5 | 5 | 5 | 5 | 5 | Herbicidal effects Am [18]: 5; Herbicidal effects Po [19]: 5; Herbicidal effects Di [20]: 5; Herbicidal effects Ch [21]: 5; Herbicidal effects Ci [22]: 5
C#CCOc1cc(-c2ccc(C(F)(F)F)n(C)c2=O)ccc1Cl [1-106] | 2 | 2 | 5 | 5 | 5 | 5 | 5 | 5 | 5 | 5 | 5 | 5 | 5 | 5 | 5 | 5 | 5 | 5 | 5 | 5 | Herbicidal effects Am [18]: 5; Herbicidal effects Po [19]: 5; Herbicidal effects Di [20]: 5; Herbicidal effects Ch [21]: 5; Herbicidal effects Ci [22]: 5
CCOC(=O)CN1C(=O)COc2cc(F)c(-c3ccc(C(F)(F)F)n(C)c3=O)cc21 [Compound 2-18] | 2 | 2 | 5 | 5 | 5 | 5 | 5 | 5 | 5 | 5 | – | – | – | – | – | – | – | 5 | 5 | 5 | –
CC(C)OCc1cc2c(-c3ccc(C(F)(F)F)n(C)c3=O)c(F)cc(Cl)c2o1 [Compound 4-33] | – | 2 | 5 | 5 | 5 | 5 | – | – | – | – | – | – | – | – | – | – | – | 5 | 5 | 5 | Phytotoxicity Ze [1, 29]: 2; Herbicidal effects Am [7, 30]: 5; Herbicidal effects Po [8, 31]: 5; Herbicidal effects Ch [9, 32]: 5; Herbicidal effects Ab [10, 33]: 5; Herbicidal effects Di [11, 34]: 5; Herbicidal effects Ec [12, 34]: 5; Herbicidal effects Am [13, 34]: 5; Herbicidal effects Po [14, 34]: 5; Herbicidal effects Ch [15, 34]: 5; Herbicidal effects Ci [16, 34]: 5
CCC(Br)c1cc2c(-c3ccc(C(F)(F)F)n(C)c3=O)c(F)cc(Cl)c2o1 (stereo not shown) [Compound 4-38] | – | 2 | 5 | 5 | 5 | 5 | – | – | – | – | – | – | – | – | – | – | – | – | – | – | Phytotoxicity Ze [1, 29]: 2; Herbicidal effects Am [7, 30]: 5; Herbicidal effects Po [8, 31]: 5; Herbicidal effects Ch [9, 32]: 5; Herbicidal effects Ab [10, 33]: 5
CC(C)OC(=O)c1cc(-c2ccc(C(F)(F)F)n(C)c2=O)c(F)cc1Cl [Compound No. 1-66, isopropyl 5-(1-methyl-6-trifluoromethyl-2(1H)-pyridon-3-yl)-2-chloro-4-fluorobenzoate] | 2 | – | – | – | – | – | 5 | 5 | 5 | 5 | 5 | 5 | 5 | 5 | 5 | 5 | 5 | 5 | 5 | 5 | Herbicidal effects Am [18]: 5; Herbicidal effects Po [19]: 5; Herbicidal effects Di [20]: 5; Herbicidal effects Ch [21]: 5; Herbicidal effects Ci [22]: 5
